Laboratory results from PubChem BioAssay AID1963829 (Molecular Pharmacology Branch, DTP, NCI, 2024).

system: 935938-334-R-J1-PDC complex spheroid viability; assay: Anticancer human tumor 935938-334-R-J1-PDC patient-derived small intestine adenocarcinoma cell line growth inhibition [POLQ]; conditions: second compound 0.1 µM; first compound 1 µM; hits give low values
How it was run: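 Patient-derived tumour cells were co-cultured with HUVEC and mesenchymal stem cells as multicellular spheroids at 37 °C. They were treated with POLQ inhibitors (novobiocin, ART-558, RP6685) alone or combined with other agents. Top concentrations were at or near clinical Cmax (otherwise 10 microM; SN-38 at 1 microM), decreasing in half-log steps.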
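Further: spheroids exposed to drugs for seven days before viability read; 100% = DMSO vehicle control wells.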

| Compound | viability, T/C [%] |
| --- | --- |
| CC1COCCN1c1cc(C2(S(C)(=N)=O)CC2)nc(-c2ccnc3[nH]ccc23)n1 (configuration not stated) + COC1C(OC(N)=O)C(O)C(Oc2ccc3c(O)c(NC(=O)c4ccc(O)c(CC=C(C)C)c4)c(=O)oc3c2C)OC1(C)C | 67.8 |
| COc1cccc2c1C(=O)c1c(O)c3c(c(O)c1C2=O)CC(O)(C(=O)CO)CC3OC1CC(N)C(O)C(C)O1 (configuration not stated) + Cc1cccc(N(C)C(=O)C2C(O)CCN2c2nc(C)cc(C(F)(F)F)c2C#N)c1 | 23.7 |

same assay, conditions: second compound 0.1 µM; first compound 3.16 µM; hits give low values

| Compound | viability, T/C [%] |
| --- | --- |
| COc1ccc([C@@H](O)c2cc(-c3ncnc4cc(N5CCOCC5)ccc34)c(F)cc2Cl)nn1 + COC1C(OC(N)=O)C(O)C(Oc2ccc3c(O)c(NC(=O)c4ccc(O)c(CC=C(C)C)c4)c(=O)oc3c2C)OC1(C)C | 64.4 |
| Nc1ccn(C2OC(CO)C(O)C2(F)F)c(=O)n1 (configuration not stated) + Cc1cccc(N(C)C(=O)C2C(O)CCN2c2nc(C)cc(C(F)(F)F)c2C#N)c1 | 20.2 |
| COc1cc2cc(C(=O)CCC(=O)O)sc2cc1OC + Cc1cccc(N(C)C(=O)C2C(O)CCN2c2nc(C)cc(C(F)(F)F)c2C#N)c1 | 62.9 |
| O=C(c1cc(Cc2n[nH]c(=O)c3ccccc23)ccc1F)N1CCN(C(=O)C2CC2)CC1 + COC1C(OC(N)=O)C(O)C(Oc2ccc3c(O)c(NC(=O)c4ccc(O)c(CC=C(C)C)c4)c(=O)oc3c2C)OC1(C)C | 80.8 |
| O=C(Nc1ccc(O)c(NS(=O)(=O)c2ccc(F)cc2)c1)c1ccc(-c2ccccc2)cc1 + Cc1cccc(N(C)C(=O)C2C(O)CCN2c2nc(C)cc(C(F)(F)F)c2C#N)c1 | 98.1 |
| COc1cc(C2c3cc4c(cc3C(OC3OC5COC(C)OC5C(O)C3O)C3COC(=O)C23)OCO4)cc(OC)c1O (configuration not stated) + Cc1cccc(N(C)C(=O)C2C(O)CCN2c2nc(C)cc(C(F)(F)F)c2C#N)c1 | 33.5 |
| CC1COCCN1c1cc(C2(S(C)(=N)=O)CC2)nc(-c2ccnc3[nH]ccc23)n1 (configuration not stated) + COC1C(OC(N)=O)C(O)C(Oc2ccc3c(O)c(NC(=O)c4ccc(O)c(CC=C(C)C)c4)c(=O)oc3c2C)OC1(C)C | 43.1 |
| COc1cccc2c1C(=O)c1c(O)c3c(c(O)c1C2=O)CC(O)(C(=O)CO)CC3OC1CC(N)C(O)C(C)O1 (configuration not stated) + Cc1cccc(N(C)C(=O)C2C(O)CCN2c2nc(C)cc(C(F)(F)F)c2C#N)c1 | 7.55 |

same assay, conditions: second compound 0.1 µM; first compound 10 µM; hits give low values

| Compound | viability, T/C [%] |
| --- | --- |
| COc1ccc([C@@H](O)c2cc(-c3ncnc4cc(N5CCOCC5)ccc34)c(F)cc2Cl)nn1 + COC1C(OC(N)=O)C(O)C(Oc2ccc3c(O)c(NC(=O)c4ccc(O)c(CC=C(C)C)c4)c(=O)oc3c2C)OC1(C)C | 26.6 |
| Nc1ccn(C2OC(CO)C(O)C2(F)F)c(=O)n1 (configuration not stated) + Cc1cccc(N(C)C(=O)C2C(O)CCN2c2nc(C)cc(C(F)(F)F)c2C#N)c1 | 21.2 |
| COc1cc2cc(C(=O)CCC(=O)O)sc2cc1OC + Cc1cccc(N(C)C(=O)C2C(O)CCN2c2nc(C)cc(C(F)(F)F)c2C#N)c1 | 81.9 |
| O=C(c1cc(Cc2n[nH]c(=O)c3ccccc23)ccc1F)N1CCN(C(=O)C2CC2)CC1 + COC1C(OC(N)=O)C(O)C(Oc2ccc3c(O)c(NC(=O)c4ccc(O)c(CC=C(C)C)c4)c(=O)oc3c2C)OC1(C)C | 58 |
| O=C(Nc1ccc(O)c(NS(=O)(=O)c2ccc(F)cc2)c1)c1ccc(-c2ccccc2)cc1 + Cc1cccc(N(C)C(=O)C2C(O)CCN2c2nc(C)cc(C(F)(F)F)c2C#N)c1 | 65.9 |
| COc1cc(C2c3cc4c(cc3C(OC3OC5COC(C)OC5C(O)C3O)C3COC(=O)C23)OCO4)cc(OC)c1O (configuration not stated) + Cc1cccc(N(C)C(=O)C2C(O)CCN2c2nc(C)cc(C(F)(F)F)c2C#N)c1 | 35.9 |
| CC1COCCN1c1cc(C2(S(C)(=N)=O)CC2)nc(-c2ccnc3[nH]ccc23)n1 (configuration not stated) + COC1C(OC(N)=O)C(O)C(Oc2ccc3c(O)c(NC(=O)c4ccc(O)c(CC=C(C)C)c4)c(=O)oc3c2C)OC1(C)C | 17.7 |
| COc1cccc2c1C(=O)c1c(O)c3c(c(O)c1C2=O)CC(O)(C(=O)CO)CC3OC1CC(N)C(O)C(C)O1 (configuration not stated) + Cc1cccc(N(C)C(=O)C2C(O)CCN2c2nc(C)cc(C(F)(F)F)c2C#N)c1 | 3.7 |

same assay, conditions: second compound 0.316 µM; first compound 0.0316 µM; hits give low values

| Compound | viability, T/C [%] |
| --- | --- |
| COc1ccc([C@@H](O)c2cc(-c3ncnc4cc(N5CCOCC5)ccc34)c(F)cc2Cl)nn1 + COC1C(OC(N)=O)C(O)C(Oc2ccc3c(O)c(NC(=O)c4ccc(O)c(CC=C(C)C)c4)c(=O)oc3c2C)OC1(C)C | 102 |
| Nc1ccn(C2OC(CO)C(O)C2(F)F)c(=O)n1 (configuration not stated) + Cc1cccc(N(C)C(=O)C2C(O)CCN2c2nc(C)cc(C(F)(F)F)c2C#N)c1 | 40.2 |
| COc1cc2cc(C(=O)CCC(=O)O)sc2cc1OC + Cc1cccc(N(C)C(=O)C2C(O)CCN2c2nc(C)cc(C(F)(F)F)c2C#N)c1 | 79.7 |
| O=C(c1cc(Cc2n[nH]c(=O)c3ccccc23)ccc1F)N1CCN(C(=O)C2CC2)CC1 + COC1C(OC(N)=O)C(O)C(Oc2ccc3c(O)c(NC(=O)c4ccc(O)c(CC=C(C)C)c4)c(=O)oc3c2C)OC1(C)C | 78.4 |
| O=C(Nc1ccc(O)c(NS(=O)(=O)c2ccc(F)cc2)c1)c1ccc(-c2ccccc2)cc1 + Cc1cccc(N(C)C(=O)C2C(O)CCN2c2nc(C)cc(C(F)(F)F)c2C#N)c1 | 85.9 |
| COc1cc(C2c3cc4c(cc3C(OC3OC5COC(C)OC5C(O)C3O)C3COC(=O)C23)OCO4)cc(OC)c1O (configuration not stated) + Cc1cccc(N(C)C(=O)C2C(O)CCN2c2nc(C)cc(C(F)(F)F)c2C#N)c1 | 131 |
| CC1COCCN1c1cc(C2(S(C)(=N)=O)CC2)nc(-c2ccnc3[nH]ccc23)n1 (configuration not stated) + COC1C(OC(N)=O)C(O)C(Oc2ccc3c(O)c(NC(=O)c4ccc(O)c(CC=C(C)C)c4)c(=O)oc3c2C)OC1(C)C | 104 |
| COc1cccc2c1C(=O)c1c(O)c3c(c(O)c1C2=O)CC(O)(C(=O)CO)CC3OC1CC(N)C(O)C(C)O1 (configuration not stated) + Cc1cccc(N(C)C(=O)C2C(O)CCN2c2nc(C)cc(C(F)(F)F)c2C#N)c1 | 56.5 |

same assay, conditions: second compound 0.316 µM; first compound 0.1 µM; hits give low values

| Compound | viability, T/C [%] |
| --- | --- |
| COc1ccc([C@@H](O)c2cc(-c3ncnc4cc(N5CCOCC5)ccc34)c(F)cc2Cl)nn1 + COC1C(OC(N)=O)C(O)C(Oc2ccc3c(O)c(NC(=O)c4ccc(O)c(CC=C(C)C)c4)c(=O)oc3c2C)OC1(C)C | 103 |
| Nc1ccn(C2OC(CO)C(O)C2(F)F)c(=O)n1 (configuration not stated) + Cc1cccc(N(C)C(=O)C2C(O)CCN2c2nc(C)cc(C(F)(F)F)c2C#N)c1 | 30.9 |
| COc1cc2cc(C(=O)CCC(=O)O)sc2cc1OC + Cc1cccc(N(C)C(=O)C2C(O)CCN2c2nc(C)cc(C(F)(F)F)c2C#N)c1 | 82.5 |
| O=C(c1cc(Cc2n[nH]c(=O)c3ccccc23)ccc1F)N1CCN(C(=O)C2CC2)CC1 + COC1C(OC(N)=O)C(O)C(Oc2ccc3c(O)c(NC(=O)c4ccc(O)c(CC=C(C)C)c4)c(=O)oc3c2C)OC1(C)C | 98.6 |
| O=C(Nc1ccc(O)c(NS(=O)(=O)c2ccc(F)cc2)c1)c1ccc(-c2ccccc2)cc1 + Cc1cccc(N(C)C(=O)C2C(O)CCN2c2nc(C)cc(C(F)(F)F)c2C#N)c1 | 93.9 |
| COc1cc(C2c3cc4c(cc3C(OC3OC5COC(C)OC5C(O)C3O)C3COC(=O)C23)OCO4)cc(OC)c1O (configuration not stated) + Cc1cccc(N(C)C(=O)C2C(O)CCN2c2nc(C)cc(C(F)(F)F)c2C#N)c1 | 114 |
| CC1COCCN1c1cc(C2(S(C)(=N)=O)CC2)nc(-c2ccnc3[nH]ccc23)n1 (configuration not stated) + COC1C(OC(N)=O)C(O)C(Oc2ccc3c(O)c(NC(=O)c4ccc(O)c(CC=C(C)C)c4)c(=O)oc3c2C)OC1(C)C | 69 |
| COc1cccc2c1C(=O)c1c(O)c3c(c(O)c1C2=O)CC(O)(C(=O)CO)CC3OC1CC(N)C(O)C(C)O1 (configuration not stated) + Cc1cccc(N(C)C(=O)C2C(O)CCN2c2nc(C)cc(C(F)(F)F)c2C#N)c1 | 41.8 |

same assay, conditions: second compound 0.316 µM; first compound 0.316 µM; hits give low values

| Compound | viability, T/C [%] |
| --- | --- |
| COc1ccc([C@@H](O)c2cc(-c3ncnc4cc(N5CCOCC5)ccc34)c(F)cc2Cl)nn1 + COC1C(OC(N)=O)C(O)C(Oc2ccc3c(O)c(NC(=O)c4ccc(O)c(CC=C(C)C)c4)c(=O)oc3c2C)OC1(C)C | 98.2 |
| Nc1ccn(C2OC(CO)C(O)C2(F)F)c(=O)n1 (configuration not stated) + Cc1cccc(N(C)C(=O)C2C(O)CCN2c2nc(C)cc(C(F)(F)F)c2C#N)c1 | 23.2 |
| COc1cc2cc(C(=O)CCC(=O)O)sc2cc1OC + Cc1cccc(N(C)C(=O)C2C(O)CCN2c2nc(C)cc(C(F)(F)F)c2C#N)c1 | 68.3 |
| O=C(c1cc(Cc2n[nH]c(=O)c3ccccc23)ccc1F)N1CCN(C(=O)C2CC2)CC1 + COC1C(OC(N)=O)C(O)C(Oc2ccc3c(O)c(NC(=O)c4ccc(O)c(CC=C(C)C)c4)c(=O)oc3c2C)OC1(C)C | 90.3 |
| O=C(Nc1ccc(O)c(NS(=O)(=O)c2ccc(F)cc2)c1)c1ccc(-c2ccccc2)cc1 + Cc1cccc(N(C)C(=O)C2C(O)CCN2c2nc(C)cc(C(F)(F)F)c2C#N)c1 | 71.4 |
| COc1cc(C2c3cc4c(cc3C(OC3OC5COC(C)OC5C(O)C3O)C3COC(=O)C23)OCO4)cc(OC)c1O (configuration not stated) + Cc1cccc(N(C)C(=O)C2C(O)CCN2c2nc(C)cc(C(F)(F)F)c2C#N)c1 | 74.1 |
| CC1COCCN1c1cc(C2(S(C)(=N)=O)CC2)nc(-c2ccnc3[nH]ccc23)n1 (configuration not stated) + COC1C(OC(N)=O)C(O)C(Oc2ccc3c(O)c(NC(=O)c4ccc(O)c(CC=C(C)C)c4)c(=O)oc3c2C)OC1(C)C | 81.9 |
| COc1cccc2c1C(=O)c1c(O)c3c(c(O)c1C2=O)CC(O)(C(=O)CO)CC3OC1CC(N)C(O)C(C)O1 (configuration not stated) + Cc1cccc(N(C)C(=O)C2C(O)CCN2c2nc(C)cc(C(F)(F)F)c2C#N)c1 | 26.8 |
